Bounds are passed on as bounds.

For data set [1] the following is noted: human, plasma, 2 h, 10 µM.
Description: Stability in human plasma at 10 uM measured upto 120 mins by LC-MS analysis
The conditions of data set [2]: rat, plasma, 2 h, 10 µM.
Description: Stability in rat plasma at 10 uM measured upto 120 mins by LC-MS analysis
The conditions of data set [3]: human, microsomes, 1 h.
Data set [4] is described as follows: physchem. As to conditions: simulated gastric fluid.
Description: Chemical stability in stimulated gastric fluid assessed as compound remaining at 10 uM measured upto 120 mins by LC-MS analysis
The nature of data set [5]: physchem. The conditions noted are these: simulated intestinal fluid.
Description: Chemical stability in stimulated intestinal fluid assessed as compound remaining at 10 uM measured upto 120 mins by LC-MS analysis

With `Cc1ccc(NC(=O)c2ccc3c(c2)c(CNCCN2CCNCC2)cn3C)cc1C`, the Stability entry in data set [1], in data set [2] and in data set [3] was “Stable” throughout. In addition, the share remaining at 2 h, 10 µM in “physchem [4]” and in the data set “physchem [5]” was above 80% in each case.
